# Structures can show the parent of a compound that is named as a salt.
# Key:
# PP1 = PP1 (Oryctolagus cuniculus, UniProt P62139); test: Selectivity toward other phosphatases: PP1, pNPP; format: biochemical
# [1] = target: T1, phosphatase domain of PHLPP2 (Homo sapiens, UniProt Q6ZVD8); test: In vitro inhibition of PHLPP2 phosphatase domain, pNPP as substrate; format: biochemical; details: for mechanism (type) of inhibition: with respect to pNPP
# T1 sequence (Q6ZVD8 785-1033 limits assumed): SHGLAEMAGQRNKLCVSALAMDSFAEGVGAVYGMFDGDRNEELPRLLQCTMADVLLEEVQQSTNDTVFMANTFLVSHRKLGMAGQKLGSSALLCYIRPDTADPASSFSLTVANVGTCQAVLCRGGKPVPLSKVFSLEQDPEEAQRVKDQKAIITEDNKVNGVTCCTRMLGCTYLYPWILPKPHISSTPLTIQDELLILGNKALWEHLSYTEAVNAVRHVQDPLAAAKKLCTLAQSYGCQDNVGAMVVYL
# COS 7 cells [2] = test: Agonist; format: cell-based
# PP2Cα = target: T2, PP2Cα (Homo sapiens, UniProt P35813); test: Selectivity toward other phosphatases: PP2Cα, pNPP; format: biochemical
# T2 sequence (P35813 1-382): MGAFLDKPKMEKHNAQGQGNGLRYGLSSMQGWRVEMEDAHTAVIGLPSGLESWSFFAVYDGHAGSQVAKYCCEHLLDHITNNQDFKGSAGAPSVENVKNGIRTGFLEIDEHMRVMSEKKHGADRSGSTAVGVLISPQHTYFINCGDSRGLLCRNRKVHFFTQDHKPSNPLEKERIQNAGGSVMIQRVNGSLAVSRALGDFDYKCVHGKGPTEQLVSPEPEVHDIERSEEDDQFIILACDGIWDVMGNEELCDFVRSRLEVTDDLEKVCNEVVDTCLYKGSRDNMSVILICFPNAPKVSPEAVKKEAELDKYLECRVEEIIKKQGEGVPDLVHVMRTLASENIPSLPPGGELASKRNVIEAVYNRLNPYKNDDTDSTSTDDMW
# PP2B/calcineurin = PP2B/calcineurin (Homo sapiens, UniProt Q08209); test: Selectivity toward other phosphatases: PP2B, pNPP; format: biochemical
# COS 7 cells [3] = test: Apoptosis assay: etoposide-induced cell death, Trypan Blue exclusion; details: for etoposide-induced increase in apoptotic cells: COS 7, 0.1% FBS
# [4] = Precipitation in cell culture medium; format: physicochemical
# COS 7 cells [5] = format: cell-based
# [6] = 10-fold higher concentration than 10 μM
# [7] = highest concentration tested (100 μM)
# [8] = 50 μM pretreatment 30 min, etoposide 24 h
# Sequence of PP1 (P62139 whole entry, the tested form may be a part): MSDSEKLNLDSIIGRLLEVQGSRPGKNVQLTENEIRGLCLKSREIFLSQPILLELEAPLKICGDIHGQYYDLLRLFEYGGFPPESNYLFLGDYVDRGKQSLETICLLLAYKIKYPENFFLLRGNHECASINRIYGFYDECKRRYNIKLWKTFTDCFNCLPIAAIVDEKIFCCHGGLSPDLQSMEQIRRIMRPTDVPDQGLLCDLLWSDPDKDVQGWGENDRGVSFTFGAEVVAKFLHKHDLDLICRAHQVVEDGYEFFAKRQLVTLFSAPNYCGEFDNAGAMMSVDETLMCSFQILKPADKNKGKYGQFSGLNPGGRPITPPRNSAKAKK
# Sequence of PP2B/calcineurin (P63098 whole entry, other chains not shown): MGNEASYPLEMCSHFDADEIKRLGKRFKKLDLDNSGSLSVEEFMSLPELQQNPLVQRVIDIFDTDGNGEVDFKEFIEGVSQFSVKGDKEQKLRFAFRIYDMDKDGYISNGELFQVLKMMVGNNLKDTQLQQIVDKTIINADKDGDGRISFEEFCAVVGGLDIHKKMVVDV
smiles,measurement,setting,value
"Nc1c(S(=O)(=O)O)cc(Nc2cccc(S(N)(=O)=O)c2)c2c1C(=O)c1ccccc1C2=O [Compound 1, 1-amino-9,10-dioxo-4-(3-sulfamoylanilino)anthracene-2-sulfonic acid, sodium salt]",IC50,PP1,~100 µM
same,effect on PP1 activity,PP1; 10 μM compound,no significant effect
same,inhibition of PP1,PP1; [6],approximately 50%
same,IC50,[1],5.45 ± 0.05 µM
same,selectivity for PHLPP over the other phosphatases tested,"[1]; vs PP1, PP2B, PP2Cα",over an order of magnitude
same,mechanism (type) of inhibition,[1],noncompetitive
same,EGF-evoked increase in p308 phosphorylation,"COS 7 cells [2]; 50 μM pretreatment, then EGF",approximately 6 fold
same,basal phosphorylation at Ser473 compared with DMSO,"COS 7 cells [2]; 50 μM, 35 min pretreatment, serum-starved COS 7",significantly higher
same,phosphorylation of Akt on Ser 473,"HT29 cells; HT29, 5% FBS, 24 h, 100 or 250 μM",increased Akt phosphorylation and activity in cells
same,phosphorylation of downstream substrates GSK3 α/β (Ser21/9) and FoxO1/3α (Thr 24/32); Akt activity,"HT29 cells; HT29, 24 h, 100 or 250 μM",corresponding increases
same,IC50,PP2Cα,~100 µM
same,effect on PP2Cα activity,PP2Cα; 10 μM compound,no significant effect
same,inhibition of PP2Cα,PP2Cα; [6],approximately 50%
same,effect on PP2B activity,PP2B/calcineurin; 10 μM compound,no significant effect
same,effect on PP2B activity,PP2B/calcineurin; [7],neither molecule affected the activity
same,basal level of apoptotic cells,"COS 7 cells [3]; 50 μM compound, no etoposide",approximately 12%
same,reduction of the magnitude of the etoposide-induced increase in apoptotic cells,COS 7 cells [3]; [8],approximately 30%
same,etoposide-induced increase in apoptotic cells,COS 7 cells [3]; [8],2.6 ± 0.3 fold
same,concentration at which compound tends to precipitate in the cell culture medium,[4],> 300 µM
same,selectivity for Ser473 compared to Thr308,COS 7 cells [5],almost 1 order of magnitude
same,increase in the phosphorylation of Ser473 (basal Akt),"COS 7 cells [5]; serum-starved COS 7, 35 min",approximately 6 fold
COc1ccc(NCc2c(O)ccc3ccccc23)cc1 [Compound 2],mechanism (type) of inhibition,[1],Noncompetitive
COc1cc(NCCC2CCCCN2)c2ncccc2c1 (stereo not drawn) [Compound 4],mechanism (type) of inhibition,[1],uncompetitive
same,toxicity to cells,"HT29 cells; HT29, 24 h","induced cells to detach from culture dishes, reflecting toxicity"
same,phosphorylation of downstream substrates GSK3 α/β (Ser21/9) and FoxO1/3α (Thr 24/32); Akt activity,"HT29 cells; HT29, 24 h, 100 or 250 μM",corresponding increases
NS(=O)(=O)c1ccc(/N=N/c2ncccc2O)cc1 [Compound 7],mechanism (type) of inhibition,[1],Competitive
"Cc1cc(/N=N/c2ccc(/N=N/c3ccc(O)c(C(=O)O)c3)cc2)c(N)cc1N [Compound 13, 1,3-[[4-(2,4-diamino-5-methylphenyl)diazenylphenyl]hydrazinylidene]-6-oxocyclohexa-1,4-diene-1-carboxylic acid]",IC50,PP1,~100 µM
same,mechanism (type) of inhibition,[1],noncompetitive
same,IC50,PP2Cα,~100 µM
same,effect on PP2B activity,PP2B/calcineurin; [7],neither molecule affected the activity
same,effect on etoposide-induced increase in apoptotic cells,COS 7 cells [3]; [8],essentially abolished
same,modulation of Ser473 phosphorylation,"COS 7 cells [5]; cells grown in serum, data not shown",considerably less effective
same,increase in the phosphorylation of Ser473 (basal Akt),"COS 7 cells [5]; serum-starved COS 7, 35 min",approximately 4 fold
same,sensitivity of phosphorylation of Akt on Thr308 compared with Ser473,"COS 7 cells [5]; serum-starved COS 7, 35 min",not significantly different
COc1ccc2nc3cc(Cl)ccc3c(Nc3ccc(C(=O)O)cc3)c2c1 [Compound 24],phosphorylation of downstream substrates GSK3 α/β (Ser21/9) and FoxO1/3α (Thr 24/32); Akt activity,"HT29 cells; HT29, 24 h, 100 or 250 μM",corresponding increases
"COc1cc([C@@H]2c3cc4c(cc3[C@@H](O[C@@H]3O[C@@H]5CO[C@@H](C)O[C@H]5[C@H](O)[C@H]3O)[C@H]3COC(=O)[C@H]23)OCO4)cc(OC)c1O [Etoposide, etoposide, reference compound]",etoposide-induced increase in apoptotic cells,COS 7 cells [3]; [8],3.4 ± 0.4 fold
